Here are results for 12 compounds from US7449470B2, “Substituted pyrimidines as ligands of adenosine receptors” (Universiteit Leiden, priority 2003, dated 2008).

The target in the assay is T1, human adenosine A1 receptor (Homo sapiens, UniProt P30542).
T1 construct: expressed in transfected cells; host or cells: CHO cells
T1 sequence (P30542 1-326): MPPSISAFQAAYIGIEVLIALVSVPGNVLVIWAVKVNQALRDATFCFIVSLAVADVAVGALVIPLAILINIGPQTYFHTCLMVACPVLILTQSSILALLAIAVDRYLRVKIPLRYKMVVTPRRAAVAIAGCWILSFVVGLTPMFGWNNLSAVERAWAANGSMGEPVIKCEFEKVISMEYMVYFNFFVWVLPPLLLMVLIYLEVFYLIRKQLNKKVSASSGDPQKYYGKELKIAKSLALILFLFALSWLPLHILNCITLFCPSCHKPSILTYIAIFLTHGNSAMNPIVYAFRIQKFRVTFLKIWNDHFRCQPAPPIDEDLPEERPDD
Briefly: Radioligand binding assay, displacement of [3H]DPCPX. The note with it: CHO cells expressing human adenosine A1 receptors; Ki ± SEM (n = 3); read-out: A1 Ki (displacement of specific [3H]DPCPX binding). Here is the method: Radioligand Binding Studies [^3H]DPCPX was purchased from Amersham. All compounds made were tested in radioligand binding assays to determine their affinities at the human adenosine A1 receptor. The affinities at the A1 receptors were determined on CHO cells expressing the human receptors, using [^3H]DPCPX as the radioligand according to a previously described method.^9
Data Analysis Competition binding data were fit to a single-site binding model and plotted using the software package Prism (Graph Pad, San Diego, Calif., USA). The Cheng-Prusoff equation Ki=IC50/(1+[I]/Kd) was used to calculate Ki values, where Ki is the affinity constant for the competing ligand, [I] is the concentration of the free radioligand, and Kd is the affinity constant for the radioligand.
For the compound `CCC(=O)Nc1cc(-c2ccccc2)nc(-c2ccccc2)n1` [Compound 15, N-(2,6-Diphenyl-pyrimidin-4-yl)-propionamide], the Ki was determined as 9.5 ± 4.6 nM.

`O=C(Nc1cc(-c2ccccc2)nc(-c2ccccc2)n1)c1ccccc1` [Compound 13, N-(2,6-Diphenyl-pyrimidin-4-yl)-benzamide]: the Ki is 671 ± 113 nM.

On to `CCCC(=O)Nc1cc(-c2ccccc2)nc(-c2ccccc2)n1` [Compound 16, N-(2,6-Diphenyl-pyrimidin-4-yl)-butyramide], for which the Ki is 17.6 ± 5.3 nM.

For the compound `CC(C)(C)C(=O)Nc1cc(-c2ccccc2)nc(-c2ccccc2)n1` [Compound 21, N-(2,6-Diphenyl-pyrimidin-4-yl)-2,2-dimethyl-propionamide], the Ki came to 27.7 ± 6.2 nM.

On to `CCC(C)C(=O)Nc1cc(-c2ccccc2)nc(-c2ccccc2)n1` (stereo not drawn) [Compound 20, N-(2,6-Diphenyl-pyrimidin-4-yl)-2-methyl-butyramide], for which the Ki was 2.22 ± 1.1 nM.

As for `O=C(Nc1cc(-c2ccccc2)nc(-c2ccccc2)n1)C1CCC1` [Compound 23, Cyclobutanecarboxylic acid (2,6-diphenyl-pyrimidin-4-yl)-amide], the Ki came to 6.49 ± 2.2 nM.

Turning to `CC(C)(C)CC(=O)Nc1cc(-c2ccccc2)nc(-c2ccccc2)n1` [Compound 22, N-(2,6-Diphenyl-pyrimidin-4-yl)-3,3-dimethyl-butyramide], the Ki came to 8.75 ± 4.1 nM.

As for `CCC(CC)C(=O)Nc1cc(-c2ccccc2)nc(-c2ccccc2)n1` [Compound 19, N-(2,6-Diphenyl-pyrimidin-4-yl)-2-ethyl-butyramide], the Ki turned out to be 6.35 ± 0.4 nM.

Consider `O=C(Nc1cc(-c2ccccc2)nc(-c2ccccc2)n1)C1CCCC1` [Compound 24, Cyclopentanecarboxylic acid (2,6-diphenyl-pyrimidin-4-yl)-amide], for which the Ki came out at 2.14 ± 0.07 nM.

On to `CC(C)CC(=O)Nc1cc(-c2ccccc2)nc(-c2ccccc2)n1` [Compound 18, N-(2,6-Diphenyl-pyrimidin-4-yl)-3-methyl-butyramide], for which the Ki was 14.8 ± 2.7 nM.

As for `CC(=O)Nc1cc(-c2ccccc2)nc(-c2ccccc2)n1` [Compound 14, N-(2,6-Diphenyl-pyrimidin-4-yl)-acetamide], the Ki amounted to 37.5 ± 8.1 nM.

Consider `O=C(Nc1cc(-c2ccccc2)nc(-c2ccccc2)n1)C1CCCCC1` [Compound 25, Cyclohexanecarboxylic acid (2,6-diphenyl-pyrimidin-4-yl)-amide], for which the Ki worked out at 15.5 ± 8.4 nM.
